Six compounds from BindingDB's records for doi:10.1038/nchembio.211 (Praecis Pharmaceuticals, 2009) can be followed below.

What all share (settings): pH 9.5; 16 °C
Assay [1] addresses T1, Aurora kinase A (Homo sapiens, UniProt O14965).
T1 sequence (O14965 whole entry): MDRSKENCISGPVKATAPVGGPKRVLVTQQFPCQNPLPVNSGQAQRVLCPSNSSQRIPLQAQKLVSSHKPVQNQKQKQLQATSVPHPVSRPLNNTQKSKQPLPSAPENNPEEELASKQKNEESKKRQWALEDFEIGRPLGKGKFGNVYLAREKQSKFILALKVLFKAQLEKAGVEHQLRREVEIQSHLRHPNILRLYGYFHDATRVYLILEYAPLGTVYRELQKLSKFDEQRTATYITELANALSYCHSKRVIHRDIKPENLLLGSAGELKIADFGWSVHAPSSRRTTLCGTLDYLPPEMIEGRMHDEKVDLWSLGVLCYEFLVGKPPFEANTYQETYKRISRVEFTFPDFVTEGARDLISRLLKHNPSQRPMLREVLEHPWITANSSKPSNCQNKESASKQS
Description: Aurora A Inhibition Assay. An excerpt:
(§1) Selection of DNA-encoded libraries (DELs) which are covalent attachment of encoding double stranded DNA to small-molecule created using a combination of enzymatic and chemical synthesis in a split-and-pool format against Aurora A kinase

For assay [2], the target named is Mitogen-activated protein kinase 14 (Homo sapiens, UniProt Q16539). Description: MAPK p38 Inhibition Assay. The text has this: Selection of DNA-encoded libraries (DELs), which are covalent attachment of encoding double stranded DNA to small-molecule created using a combination of enzymatic and chemical synthesis in a split-and-pool format against p38 mitogen-activated protein kinase

In assay [3] the target is T2, Aurora kinase A (Homo sapiens, UniProt O14965).
T2 sequence (O14965 whole entry): T1 sequence (O14965 whole entry) with I57V
As to the kind of experiment: Aurora A Inhibition Assay.
Excerpt: as §1
The source holds these as a separate data set.

The term IC50 denotes the concentration that gives 50% inhibition. The EC50 is the concentration needed to bring the measured effect to its halfway point.

Changes are numbered by the printed parent chain.

Sequence of Mitogen-activated protein kinase 14 (Q16539 whole entry): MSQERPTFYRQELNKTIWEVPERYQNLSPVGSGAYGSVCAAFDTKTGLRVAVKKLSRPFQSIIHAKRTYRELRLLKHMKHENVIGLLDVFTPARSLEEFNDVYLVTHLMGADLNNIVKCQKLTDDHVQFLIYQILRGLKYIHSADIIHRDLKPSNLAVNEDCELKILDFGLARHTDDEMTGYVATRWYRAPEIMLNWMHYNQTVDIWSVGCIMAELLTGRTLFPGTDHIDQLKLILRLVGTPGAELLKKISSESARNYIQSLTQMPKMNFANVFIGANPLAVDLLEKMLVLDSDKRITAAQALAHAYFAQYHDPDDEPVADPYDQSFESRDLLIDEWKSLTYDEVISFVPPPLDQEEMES

On to `COc1ccccc1CCNc1nc(NC(Cc2c[nH]c3ncccc23)C(N)=O)nc(N(C)[C@@H](C)c2ccccc2)n1` (stereo partly drawn) [2-(4-(2-Methoxyphenethylamino)-6-(methyl((S)-1-phenylethyl)amino)-1,3,5-triazin-2-ylamino)-3-(1H-pyrrolo[2,3-b]pyridin-3-yl)propanamide], for which the IC50 in assay [1] worked out at 6.3 µM.
Turning to `COc1ccccc1CCNc1nc(Nc2ccc3ncccc3c2)nc(NC(Cc2c[nH]c3ncccc23)C(N)=O)n1` (stereo unspecified) [2-(4-(2-Methoxyphenethylamino)-6-(quinolin-6-ylamino)-1,3,5-triazin-2-ylamino)-3-(1H-pyrrolo[2,3-b]pyridin-3-yl)propanamide], the IC50 in assay [1] came out at 3.7 µM.
Consider `CCCCN(C)c1nc(NCCc2ccccc2OC)nc(NC(Cc2c[nH]c3ncccc23)C(N)=O)n1` (stereo unspecified) [2-(4-(Butyl(methyl)amino)-6-(2-methoxyphenethylamino)-1,3,5-triazin-2-ylamino)-3-(1H-pyrrolo[2,3-b]pyridin-3-yl)propanamide], for which, in assay [1], the IC50 was 3.8 µM.
As for `CNC(=O)[C@H](Cc1ccc2c(c1)COC(C)(C)O2)Nc1nc(NCC(C)C)nc(-n2cnc3cc(C(=O)N4CCCc5ccccc54)ccc32)n1` [(S)-3-(2,2-Dimethyl-4H-benzo[d][1,3]dioxin-6-yl)-2-(4-(isobutylamino)-6-(5-(1,2,3,4-tetrahydroquinoline-1-carbonyl)-1H-benzo[d]imidazol-1-yl)-1,3,5-triazin-2-ylamino)-N-methylpropanamide], the EC50 in assay [2] stood at 0.25 µM.
Turning to `CNc1nc(NCCc2ccccc2OC)nc(Nc2ccc3ncccc3c2)n1` [DEL-A, 12], the IC50 in assay [3] was 5.1 µM.
In the case of `CCCCN(C)c1nc(NCCc2ccccc2OC)nc(NCCc2c[nH]c3ncccc23)n1` [N2-(2-(1H-Pyrrolo[2,3-b]pyridin-3-yl)ethyl)-N4-butyl-N6-(2-methoxyphenethyl)-N4-methyl-1,3,5-triazine-2,4,6-triamine], the IC50 in assay [1] amounted to 1.2 µM.
